Reference: patent US7897781B2, “Cold menthol receptor-1 antagonists” (Janssen Pharmaceutica NV, priority 2006, dated 2011)
Values joined by “and” are separate entries in the source; they are usually repeats but may differ in a detail not shown here. Equal entries are not always repeated.

Target: T1, canine TRPM8 (Canis lupus familiaris, UniProt Q1A7N1)
T1 construct: expressed in transfected cells
Assay: In vitro canine TRPM8 functional assay (Ca2+-sensitive dye, icilin activation; Table 4 TRPM8 Screening)
Format: cell-based
Conditions: HEK293 cells expressing canine TRPM8, icilin activation; for % I (1 μM): compound at 1 μM; for % I (5 μM): compound at 5 μM; for % I (0.5 μM): compound at 0.5 μM
Method: The functional activity of compounds of Formula (I) was determined by measuring changes in intracellular calcium concentration using a Ca^2+-sensitive fluorescent dye. The changes in fluorescent signal were monitored by a fluorescence plate reader, either a FLIPR™ (Molecular Devices) or FDSS (Hamamatsu).
HEK293 cells stably expressing canine TRPM8 were routinely grown as monolayers in Dulbecco's minimum essential medium supplemented with 10% FBS, 1 mM L-glutamine, 100 units/mL penicillin, 100 ug/mL streptomycin and 400 μg/mL G418. Cells were maintained in 5% CO2 at 37° C. At 24 hrs prior to assay, cells were seeded in clear-base poly-D-lysine coated 384-well plates (BD Biosciences, NJ, USA) at a density of 5,000 cells per well in culture medium and grown overnight in 5% CO2 at 37° C. On assay day, growth media was removed and cells were loaded with Calcium 3 Dye (Molecular Devices) for 35 min at 37° C., under 5% CO2 and then for 25 min at room temperature and atmosphere. Subsequently, cells were tested for agonist-induced increases in intracellular Ca^2+ levels using FLIPR™ or FDSS. Cells were challenged with a compound of Formula (I) (at varying concentrations) and intracellular Ca^2+ was measured for 5 min prior to the addition of icilin to all wells to achieve a final concentration which produces approximately an 80% maximal response.
Basal FI was subtracted prior to normalizing data to percent of maximal response. Curves were generated using the average of quadruplicate wells for each data point, were analyzed using nonlinear regression of either sigmoidal dose response or sigmoidal dose response (variable slope). Finally, the EC50 and IC50 values were calculated with the best-fit dose curve determined by GraphPad Prism.

T1 sequence (Q1A7N1 1-1104): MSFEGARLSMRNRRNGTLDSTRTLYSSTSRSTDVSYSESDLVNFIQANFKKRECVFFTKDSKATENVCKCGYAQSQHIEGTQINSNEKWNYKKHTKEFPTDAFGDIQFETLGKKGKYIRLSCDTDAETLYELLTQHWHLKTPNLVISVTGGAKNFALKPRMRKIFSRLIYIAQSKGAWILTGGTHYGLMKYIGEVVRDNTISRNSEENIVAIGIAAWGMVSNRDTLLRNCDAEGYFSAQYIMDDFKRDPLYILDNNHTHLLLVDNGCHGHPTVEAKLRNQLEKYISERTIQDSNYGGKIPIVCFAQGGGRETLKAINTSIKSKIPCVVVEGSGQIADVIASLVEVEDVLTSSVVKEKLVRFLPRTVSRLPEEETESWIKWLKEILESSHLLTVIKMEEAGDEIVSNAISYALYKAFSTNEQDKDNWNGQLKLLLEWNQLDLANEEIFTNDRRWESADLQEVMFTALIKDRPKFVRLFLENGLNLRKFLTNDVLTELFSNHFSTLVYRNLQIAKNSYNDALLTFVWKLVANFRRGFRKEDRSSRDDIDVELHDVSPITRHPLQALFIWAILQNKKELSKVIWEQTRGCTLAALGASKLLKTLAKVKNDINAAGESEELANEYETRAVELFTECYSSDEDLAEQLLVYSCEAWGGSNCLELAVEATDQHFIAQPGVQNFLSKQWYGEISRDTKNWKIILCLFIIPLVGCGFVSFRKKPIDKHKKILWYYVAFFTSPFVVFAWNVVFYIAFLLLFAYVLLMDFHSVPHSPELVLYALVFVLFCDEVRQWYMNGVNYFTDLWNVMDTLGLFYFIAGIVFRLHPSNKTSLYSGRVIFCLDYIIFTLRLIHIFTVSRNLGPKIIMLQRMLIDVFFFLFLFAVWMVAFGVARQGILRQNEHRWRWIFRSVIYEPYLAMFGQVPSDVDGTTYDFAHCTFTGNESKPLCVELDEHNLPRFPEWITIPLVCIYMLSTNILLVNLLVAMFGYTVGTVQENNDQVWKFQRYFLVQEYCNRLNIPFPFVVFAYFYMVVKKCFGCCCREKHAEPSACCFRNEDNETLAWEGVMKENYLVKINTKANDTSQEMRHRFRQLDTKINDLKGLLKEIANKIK

| Compound | % I (1 μM) | % I (5 μM) [%] | % I (0.5 μM) |
| --- | --- | --- | --- |
| CCOP(=O)(Cc1cc2ccccc2s1)OCc1ccccc1Br (centres unmarked) [Cpd 110] | 11% | 96 |  |
| COc1cc(CC(c2sc3ccccc3c2Br)P(=O)(OC(C)C)OC(C)C)ccc1F (centres unmarked) [Cpd 157] |  |  | 98% |
| CC(C)OP(=O)(OC(C)C)C(Cc1ccccc1F)c1sc2cccc(Br)c2c1Br (centres unmarked) [Cpd 198] | 98% |  |  |
| [2-(3,4-Difluoro-phenyl)-1-(3-methyl-benzo[b]thiophene-2-yl)-ethyl]-[3-(4-methoxy-phenyl)-propyl]-phosphonic acid ethyl ester [Cpd 135] | 90% |  |  |
| CCOP(=O)(OCC)C(Cc1cc(F)c(Cl)cc1Cl)c1sc2ccccc2c1C (centres unmarked) [Cpd 76] | 100% |  |  |
| COCCOCCOP(=O)(OCCOCCOC)C(Cc1ccc(F)c(F)c1)c1sc2ccccc2c1Br (centres unmarked) [Cpd 210] |  |  | 62% |
| CC(C)OP(=O)(OC(C)C)C(Cc1cccc(O)c1F)c1sc2ccccc2c1Br (racemic) [Cpd 230] |  |  | 97% |
| CCOP(=O)(OCC)C(Cc1ccc(F)c(F)c1)c1sc2ccccc2c1-c1cccc(C(=O)OC)c1 (centres unmarked) [Cpd 219] |  |  | 68% |
| CCC(C)P(=O)(C(C)CC)C(Cc1ccc(F)c(F)c1)c1sc2ccccc2c1Br (centres unmarked) [Cpd 203] | 96% |  |  |
| CCOP(=O)(OCC)C(Cc1cccc(Cl)c1F)c1sc2ccccc2c1C (centres unmarked) [Cpd 23] | 100% |  |  |
| CCCS(=O)(=O)n1c(C(Cc2ccc(F)c(C(F)(F)F)c2)P(=O)(OC(C)C)OC(C)C)c(Br)c2ccccc21 (centres unmarked) [Cpd 332] |  |  | 72% |
| CCOP(=O)(OCC)C(Cc1ccc(F)c(F)c1)c1c(C)c2ccccc2[s+]1[O-] (centres unmarked) [Cpd 118] | 23% |  |  |
| CCOP(=O)(OCC)C(Cc1ccccc1C(F)(F)F)c1sc2ccccc2c1C (centres unmarked) [Cpd 59] | 99% |  |  |
| CC(C)OP(=O)(OC(C)C)[C@H](Cc1ccc(F)c(C(F)(F)F)c1)c1sc2ccccc2c1Br [Cpd 243, (R)-[1-(3-Bromo-benzo[b]thiophen-2-yl)-2-(4-fluoro-3-trifluoromethylphenyl)-ethyl]-phosphonic acid diisopropyl ester] |  |  | 64% |
| CCOP(=O)(OCC)C(Cc1cc(C(F)(F)F)ccc1C(F)(F)F)c1sc2ccccc2c1C (centres unmarked) [Cpd 113] | 25% |  |  |
| CCOP(=O)(OCC)C(Cc1cccc(OC(F)(F)F)c1)c1sc2ccccc2c1Br (racemic) [Cpd 145] |  |  | 103, % |
| CCOP(=O)(OCC)C(Cc1ccccc1C)c1sc2ccccc2c1C (centres unmarked) [Cpd 26] | 100% |  |  |
| CCOP(=O)(Cc1cc2ccccc2s1)OCc1ccccc1Cl (racemic) [Cpd 105] | 48% | 100 |  |
| CC(C)OP(=O)(OC(C)C)C(Cc1ccc(F)c(F)c1)c1sc2ncccc2c1Br (racemic) [Cpd 207] |  |  | 99% |
| CCOP(=O)(OCC)C(Cc1ccccc1F)c1cc2ccccc2s1 (centres unmarked) [Cpd 80] | 93% | 100 |  |
| CCOP(=O)(OCC)C(Cc1cc(OC)c(Cl)cc1F)c1sc2ccccc2c1Br (racemic) [Cpd 164] |  |  | 94% |

| Compound | % I (1 μM) | % I (5 μM) [%] | % I (0.5 μM) |
| --- | --- | --- | --- |
| COP(=O)(OC)C(Cc1ccc(F)c(F)c1)c1sc2ccccc2c1Br (centres unmarked) [Cpd 201] | 100% |  |  |
| CCOP(=O)(OCC)C(Cc1ccc(F)c(OC)c1)c1sc2ccccc2c1Br (centres unmarked) [Cpd 156] |  |  | 98% |
| CCOP(=O)(OCC)C(Cc1ccccc1C(F)(F)F)c1cc2ccccc2s1 (centres unmarked) [Cpd 102] | 86% |  |  |
| CCOP(=O)(OCC)C(Cc1ccccc1Cl)c1cc2ccccc2s1 (centres unmarked) [Cpd 85] | 90% | 100 |  |
| CCOP(=O)(Cc1cc2ccccc2s1)OCc1ccc(F)cc1 (centres unmarked) [Cpd 107] |  | 99 |  |
| CC(C)OP(=O)(OC(C)C)C(Cc1ccccc1F)c1sc2ccccc2c1Br (centres unmarked) [Cpd 196] | 100% |  |  |
| CCOP(=O)(OCC)C(Cc1ccc(Br)cc1)c1cc2ccccc2s1 (centres unmarked) [Cpd 70] | 82% | 99 |  |
| CCOP(=O)(OCC)C(Cc1ccccc1-c1ccccc1)c1sc2ccccc2c1C (centres unmarked) [Cpd 115] | 69% |  |  |
| CCOP(=O)(OCC)C(Cc1c(Cl)ccc(C)c1F)c1sc2ccccc2c1C (centres unmarked) [Cpd 60] | 100% |  |  |
| CC(C)OP(=O)(OC(C)C)C(Cc1ccc(F)c(F)c1)c1sc2ccccc2c1C1CCCC1 (centres unmarked) [Cpd 38] | 99% |  |  |
| CC(C)OP(=O)(OC(C)C)C(Cc1cccc(C(F)(F)F)c1)c1cc2ccccc2s1 (centres unmarked) [Cpd 69] | 99% |  |  |
| CC(C)OP(=O)(OC(C)C)C(Cc1cccc(C(F)(F)F)c1Cl)c1sc2ccccc2c1Cl (centres unmarked) [Cpd 177] |  |  | 96% |
| CCOP(=O)(OCC)C(Cc1cc(C(F)(F)F)cc(Cl)c1F)c1sc2ccccc2c1C (centres unmarked) [Cpd 73] | 100% |  |  |
| CCOP(=O)(OCC)C(Cc1ccc(F)cc1Cl)c1cc2ccccc2s1 (centres unmarked) [Cpd 98] | 79% |  |  |
| CCOP(=O)(OCC)C(Cc1cc(C(F)(F)F)ccc1F)c1sc2ccccc2c1C (centres unmarked) [Cpd 67] | 100% |  |  |
| CC(C)OP(=O)(OC(C)C)C(Cc1cc(C(F)(F)F)ccc1Cl)c1sc2ccccc2c1Cl (centres unmarked) [Cpd 178] |  |  | 79% |
| CC(C)OP(=O)(OC(C)C)C(Cc1c(F)c(F)c(O)c(F)c1F)c1sc2ccccc2c1Br (racemic) [Cpd 229] |  |  | 95% |
| Cc1c(C(Cc2ccc(F)c(F)c2)P(=O)(OC(C)C)OC(C)C)oc2ccccc12 (centres unmarked) [Cpd 11] | 99% |  |  |
| CC(C)OP(=O)(OC(C)C)C(Cc1ccc(S(C)(=O)=O)cc1)c1sc2ccccc2c1Br (centres unmarked) [Cpd 252] |  |  | 44% |
| CCOP(=O)(CC(C)C)C(Cc1ccc(F)c(F)c1)c1sc2ccccc2c1C (centres unmarked) [Cpd 6, [2-(3,4-Difluoro-phenyl)-1-(3-methyl-benzo[b]thiophene-2-yl)-ethyl]-isobutyl-phosphonic acid ethyl ester] | 100% |  |  |
| CC(C)OP(=O)(OC(C)C)C(Cc1ccc(F)c(F)c1)c1sc2ccccc2c1Br (centres unmarked) [Cpd 15, [1-(3-Bromo-benzo[b]thiophen-2-yl)-2-(3,4-difluoro-phenyl)ethyl]-phosphonic acid diisopropyl ester] | 100% and 103% |  |  |

| Compound | % I (1 μM) | % I (5 μM) [%] | % I (0.5 μM) |
| --- | --- | --- | --- |
| CCOP(=O)(OCC)C(Cc1ccc(OC)c(C(F)(F)F)c1)c1sc2ccccc2c1Br (racemic) [Cpd 152] |  |  | 92% |
| Cc1c(C(Cc2ccc(F)c(F)c2)P(=O)(OC(C)C)OC(C)C)sc2ncccc12 (centres unmarked) [Cpd 34, [2-(3,4-Difluoro-phenyl)-1-(3-methyl-thieno[2,3-b]pyridin-2-yl)-ethyl]-phosphonic acid diisopropyl ester] | 101, 101% |  |  |
| CCOP(=O)(OCC)C(Cc1ccc(C(F)(F)F)cc1)c1cc2ccccc2s1 (centres unmarked) [Cpd 68] | 96% |  |  |
| [2-(3,4-Difluoro-phenyl)-1-(3-methyl-benzo[b]thiophene-2-yl)-ethyl]-methyl-phosphonic acid ethyl ester [Cpd 30] | 100% and 99% |  |  |
| [2-(3,4-Difluoro-phenyl)-1-(3-methyl-benzo[b]thiophene-2-yl)-ethyl]-methyl-phosphonic acid ethyl ester [Cpd 106] | 32% |  |  |
| CC(C)OP(=O)(OC(C)C)[C@H](Cc1ccc(F)c(F)c1)c1sc2ccccc2c1Br [Cpd 235, (R)-[1-(3-Bromo-benzo[b]thiophen-2-yl)-2-(3,4-difluoro-phenyl)-ethyl]-phosphonic acid diisopropyl ester] |  |  | 93% |
| CCOP(=O)(OCC)C(Cc1cccc(C(F)(F)F)c1)c1cc2ccccc2s1 (centres unmarked) [Cpd 39] | 100% |  |  |
| CCCP(=O)(CCC)C(OCc1ccc(F)c(F)c1)c1sc2ccccc2c1C (centres unmarked) [Cpd 42] | 100% |  |  |
| CCOP(=O)(OCC)C(Cc1cc2c(cc1Cl)OCO2)c1sc2ccccc2c1C (centres unmarked) [Cpd 71] | 98% |  |  |
| CCOP(=O)(OCC)C(Cc1cc(C(F)(F)F)ccc1Cl)c1sc2ccccc2c1C (centres unmarked) [Cpd 99] | 100% |  |  |
| CC(=O)OCCOP(=O)(OCCOC(C)=O)C(Cc1ccc(F)c(F)c1)c1sc2ccccc2c1Br (racemic) [Cpd 213] |  |  | 100% |
| CCOP(=O)(CC(C)C)C(Cc1ccc(F)c(F)c1)c1sc2ccccc2c1C (centres unmarked) [Cpd 36, [2-(3,4-Difluoro-phenyl)-1-(3-methyl-benzo[b]thiophene-2-yl)-ethyl]-isobutyl-phosphonic acid ethyl ester] | 100% |  |  |
| CCOP(=O)(OCC)C(Cc1c(Cl)cccc1Cl)c1sc2ccccc2c1C (centres unmarked) [Cpd 54] | 100% |  |  |
| CCOP(=O)(Cc1cc2ccccc2s1)OCc1ccccc1 (centres unmarked) [Cpd 111] | 14% |  |  |
| CCOP(=O)(OCC)C(Cc1cccc(Cl)c1Cl)c1sc2ccccc2c1C (centres unmarked) [Cpd 35] | 100% |  |  |
| CCOP(=O)(OCC)C(Cc1ccc(F)c(F)c1)c1oc2cccc(F)c2c1Br (racemic) [Cpd 206] | 100% |  |  |
| CCOP(=O)(OCC)C(Cc1c(Cl)cccc1Cl)c1cc2ccccc2s1 (centres unmarked) [Cpd 95] | 89% | 100 |  |
| CCOP(=O)(OCC)C(Cc1cccc(F)c1F)c1sc2ccccc2c1C (centres unmarked) [Cpd 10] | 100% |  |  |
| CCOP(=O)(OCC)C(Cc1cc(O)c(Cl)cc1F)c1sc2ccccc2c1Br (racemic) [Cpd 231] |  |  | 98% |
| CCOP(=O)(OCC)C(Cc1ccc2ccccc2c1)c1cc2ccccc2s1 (centres unmarked) [Cpd 83] | 84% |  |  |
